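At the GI50, growth is halved. At the TGI there is no net growth.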
How the values were obtained:
Test in all cases: inhibition of tumour cell growth, NCI panel, 384-well format
IGROV1 ovarian = test system: IGROV1 ovarian
EKVX NSCLC = test system: EKVX NSCLC
COLO 205 colon = test system: COLO 205 colon
RPMI-8226 leukemia = test system: RPMI-8226 leukemia
SK-OV-3 ovarian = test system: SK-OV-3 ovarian
TK-10 renal = test system: TK-10 renal
HT29 colon = test system: HT29 colon
CCRF-CEM leukemia = test system: CCRF-CEM leukemia
OVCAR-4 ovarian = test system: OVCAR-4 ovarian
SF-539 CNS = test system: SF-539 CNS
HS 578T breast = test system: HS 578T breast
SF-295 CNS = test system: SF-295 CNS
SF-268 CNS = test system: SF-268 CNS
SK-MEL-28 melanoma = test system: SK-MEL-28 melanoma
HCC-2998 colon = test system: HCC-2998 colon
U251 glioblastoma = test system: U251 glioblastoma
NCI-H23 lung = test system: NCI-H23 lung
K-562 leukemia = test system: K-562 leukemia
RXF 393 renal = test system: RXF 393 renal
SK-MEL-5 melanoma = test system: SK-MEL-5 melanoma
A549 NSCLC = test system: A549 NSCLC
HCT-15 colon = test system: HCT-15 colon
KM12 colon = test system: KM12 colon
SN12C renal = test system: SN12C renal
T-47D breast = test system: T-47D breast
M14 melanoma = test system: M14 melanoma
NCI-H460 NSCLC = test system: NCI-H460 NSCLC
A498 renal = test system: A498 renal
SNB-19 CNS = test system: SNB-19 CNS
NCI-H226 lung = test system: NCI-H226 lung
DU-145 prostate = test system: DU-145 prostate
MDA-MB-231 breast = test system: MDA-MB-231 breast
MDA-MB-435 melanoma = test system: MDA-MB-435 melanoma
CAKI-1 renal = test system: CAKI-1 renal
SR leukemia = test system: SR leukemia
MOLT-4 leukemia = test system: MOLT-4 leukemia
NCI-H522 lung = test system: NCI-H522 lung
OVCAR-8 ovarian = test system: OVCAR-8 ovarian
NCI/ADR-RES ovarian = test system: NCI/ADR-RES ovarian
PC-3 prostate = test system: PC-3 prostate
UO-31 renal = test system: UO-31 renal
ACHN renal = test system: ACHN renal
SNB-75 CNS = test system: SNB-75 CNS
MCF7 breast = test system: MCF7 breast
HOP-92 NSCLC = test system: HOP-92 NSCLC
HL-60(TB) leukemia = test system: HL-60(TB) leukemia
NCI-H322M lung = test system: NCI-H322M lung
MALME-3M melanoma = test system: MALME-3M melanoma
OVCAR-3 ovarian = test system: OVCAR-3 ovarian
BT-549 breast = test system: BT-549 breast
LOX IMVI melanoma = test system: LOX IMVI melanoma
HCT-116 colon = test system: HCT-116 colon
786-0 renal = test system: 786-0 renal
MDA-MB-468 breast = test system: MDA-MB-468 breast
UACC-257 melanoma = test system: UACC-257 melanoma
HOP-62 NSCLC = test system: HOP-62 NSCLC
OVCAR-5 ovarian = test system: OVCAR-5 ovarian
SW-620 colon = test system: SW-620 colon

COc1cccc2cc(-c3nc(C4CCC(C(=O)O)CC4)n4ncnc(N)c34)[nH]c12 (stereo unspecified)
GI50 (IGROV1 ovarian): 0.36 µM | TGI (IGROV1 ovarian): 4.38 µM | GI50 (EKVX NSCLC): 1.1 µM | TGI (EKVX NSCLC): 11.6 µM | GI50 (COLO 205 colon): 1.18 µM | TGI (COLO 205 colon): 26.6 µM | GI50 (RPMI-8226 leukemia): 0.161 µM | TGI (RPMI-8226 leukemia): 0.542 µM | GI50 (SK-OV-3 ovarian): 1.44 µM | TGI (SK-OV-3 ovarian): 26.8 µM | GI50 (TK-10 renal): 1.75 µM | TGI (TK-10 renal): 11 µM | GI50 (HT29 colon): 8.51 µM | TGI (HT29 colon): > 100 µM | GI50 (CCRF-CEM leukemia): 0.738 µM | TGI (CCRF-CEM leukemia): 10.5 µM | GI50 (OVCAR-4 ovarian): 1.25 µM | TGI (OVCAR-4 ovarian): 5.75 µM | GI50 (SF-539 CNS): 1.76 µM | TGI (SF-539 CNS): 10.4 µM | GI50 (HS 578T breast): 0.302 µM | TGI (HS 578T breast): 1.59 µM | GI50 (SF-295 CNS): 1.16 µM | TGI (SF-295 CNS): 4.99 µM | GI50 (SF-268 CNS): 2.3 µM | TGI (SF-268 CNS): 31.3 µM | GI50 (SK-MEL-28 melanoma): 0.453 µM | TGI (SK-MEL-28 melanoma): 7.41 µM | GI50 (HCC-2998 colon): 5.76 µM | TGI (HCC-2998 colon): 44.1 µM | GI50 (U251 glioblastoma): 4.36 µM | TGI (U251 glioblastoma): > 100 µM | GI50 (NCI-H23 lung): 2.3 µM | TGI (NCI-H23 lung): 15 µM | GI50 (K-562 leukemia): 2.61 µM | TGI (K-562 leukemia): 38 µM | GI50 (RXF 393 renal): 1.49 µM | TGI (RXF 393 renal): 6.54 µM | GI50 (SK-MEL-5 melanoma): 0.518 µM | TGI (SK-MEL-5 melanoma): 2.18 µM | GI50 (A549 NSCLC): 2.9 µM | TGI (A549 NSCLC): 27.9 µM | GI50 (HCT-15 colon): 1.36 µM | TGI (HCT-15 colon): 57 µM | GI50 (KM12 colon): 0.964 µM | TGI (KM12 colon): > 100 µM | GI50 (SN12C renal): 0.941 µM | TGI (SN12C renal): > 100 µM | GI50 (T-47D breast): 0.158 µM | TGI (T-47D breast): 0.725 µM | GI50 (M14 melanoma): 0.727 µM | TGI (M14 melanoma): 15.6 µM | GI50 (NCI-H460 NSCLC): 0.39 µM | TGI (NCI-H460 NSCLC): 13 µM | GI50 (A498 renal): 0.539 µM | TGI (A498 renal): 4.25 µM | GI50 (SNB-19 CNS): 8.96 µM | TGI (SNB-19 CNS): > 100 µM | GI50 (NCI-H226 lung): 1.15 µM | TGI (NCI-H226 lung): 6.68 µM | GI50 (DU-145 prostate): 3.71 µM | TGI (DU-145 prostate): > 100 µM | GI50 (MDA-MB-231 breast): 0.811 µM | TGI (MDA-MB-231 breast): > 100 µM | GI50 (MDA-MB-435 melanoma): 2.39 µM | TGI (MDA-MB-435 melanoma): 11.4 µM | GI50 (CAKI-1 renal): 1.59 µM | TGI (CAKI-1 renal): 8.1 µM | GI50 (SR leukemia): 0.293 µM | TGI (SR leukemia): 1.25 µM | GI50 (MOLT-4 leukemia): 0.651 µM | TGI (MOLT-4 leukemia): 10.2 µM | GI50 (NCI-H522 lung): 0.4 µM | TGI (NCI-H522 lung): > 100 µM | GI50 (OVCAR-8 ovarian): 2.31 µM | TGI (OVCAR-8 ovarian): 49.5 µM | GI50 (NCI/ADR-RES ovarian): 2.45 µM | TGI (NCI/ADR-RES ovarian): 17 µM | GI50 (PC-3 prostate): 0.56 µM | TGI (PC-3 prostate): 5.83 µM | GI50 (UO-31 renal): 0.919 µM | TGI (UO-31 renal): 15.8 µM | GI50 (ACHN renal): 1.18 µM | TGI (ACHN renal): 13 µM | GI50 (SNB-75 CNS): 0.382 µM | TGI (SNB-75 CNS): 2.81 µM | GI50 (MCF7 breast): 0.229 µM | TGI (MCF7 breast): > 100 µM | GI50 (HOP-92 NSCLC): 1 µM | TGI (HOP-92 NSCLC): 8.38 µM | GI50 (HL-60(TB) leukemia): 11.3 µM | TGI (HL-60(TB) leukemia): 23.8 µM | GI50 (NCI-H322M lung): 0.426 µM | TGI (NCI-H322M lung): 21.5 µM | GI50 (MALME-3M melanoma): 0.19 µM | TGI (MALME-3M melanoma): 0.878 µM | GI50 (OVCAR-3 ovarian): 0.442 µM | TGI (OVCAR-3 ovarian): 11.4 µM | GI50 (BT-549 breast): 1.17 µM | TGI (BT-549 breast): 5.36 µM | GI50 (LOX IMVI melanoma): 2.69 µM | TGI (LOX IMVI melanoma): 10.3 µM | GI50 (HCT-116 colon): 4.13 µM | TGI (HCT-116 colon): 62.4 µM | GI50 ([…]-0 renal): 3.33 µM | TGI (786-0 renal): 19.5 µM | GI50 (MDA-MB-468 breast): 0.21 µM | TGI (MDA-MB-468 breast): 1.52 µM | GI50 (UACC-257 melanoma): 3.13 µM | TGI (UACC-257 melanoma): 27 µM | GI50 (HOP-62 NSCLC): 1.11 µM | TGI (HOP-62 NSCLC): 5.42 µM | GI50 (OVCAR-5 ovarian): 3.09 µM | TGI (OVCAR-5 ovarian): 67.5 µM | GI50 (SW-620 colon): 4.22 µM | TGI (SW-620 colon): > 100 µM

Reference: PubChem BioAssay (NCI)
